Experimental data: patent publication US20130158070A1, “CONJUGATES OF POLYUNSATURATED FATTY ACIDS AND AMINE-CONTAINING COMPOUNDS AND USES THEREOF” (priority 2010, published 2013)

Experiments:
[1] = tested on: carrageenan-induced edema; assay: Carrageenan-induced paw edema in rats; format: in vivo, Sprague dawley rats; conditions: carrageenan 1 mg/paw, versus Ibuprofen, FIG. 4
Description: Exemplary conjugates were subjected to in vivo study of paw edema measurements in rats. Sprague dawley rats (150-200 grams) were used. Edema was induced by a single sub-plantar injection of carrageenan (1 mg/paw) into the left hind paw of the rat under light ether anesthesia. The total volume injected was 0.1 ml. The paw volume was measured immediately before the injection and at hourly intervals thereafter using a hydroplethysmometer (model 7150, Ugo Basile, Italy). The results were expressed either as the increase in paw volume (ml) calculated by subtracting the basal volume or by calculating the area under the time-course curve (AUC; ml h) for each group.
The anti-inflammatory activity of the conjugates was tested versus Ibuprofen, as a reference, on carrageenan-induced edema at different time intervals.

[2] = tested on: TNBS-induced ulcerative colitis; assay: TNBS-induced colitis (ulcerative colitis) in rats; format: in vivo
Description: Exemplary conjugates were tested for the effect on inflammatory bowel disease IBD (ulcerative colitis) in rats.
Briefly, ulcerative colitis was induced by tri-nitrobenzene sulfunic acid (TNBS) as described in the literature. Rats were divided into 4 groups, (−) sham (healthy), (+) control ulcerative colitis (UC, not treated), UC treated with the tested conjugate (25 mg/kg), and UC treated with 5-amino salicylic acid (5-ASA 25 mg/kg). The tested conjugate and 5-ASA were administered rectally during all the period of the experiment. At the end of the experiment animals were sacrificed and the colon was isolated to test the severity of the inflammation. The severity of the inflammation was tested by measurement of the myeloperoxidase activity (MPO activity) in the inflamed area of the colon.

[3] = Acute intraperitoneal (IP) toxicity in the mouse; conditions: both sexes, in vivo, single IP injection, male and female ICR mice, read-out: MTD (Maximum Tolerated Dose)
Description: The objective of this study was to determine the MTD (Maximum Tolerated Dose) and/or assess the potential toxic effects in terms of the MFD (Maximum Feasible Dose) following an acute intraperitoneal (IP) injection of the Test Item MWL002 (Batch No.: 201109) to male and female ICR mice, in consideration of its intended use as an anti-inflammatory and pain relief agent.
MWL002 (Batch No.: 201109) was injected at two dose levels of 1000 (corresponding to the MFD) and 200 mg/kg to two groups consisting of three male and three female ICR mice per group, by a single intraperitoneal (IP) injection. An additional equally-sized group was injected with vehicle and served as the Control group. Dosing was sequential using three male and three female mice per step at 14 days interval. The Test Item or Vehicle Control Dosing Solutions were freshly prepared by the Testing Facility on each day of dosing, by diluting the Test Item or Vehicle Control with Physiological Saline according to the appropriate dose level and a constant volume dosage of 4 ml/kg.

Row | Structure (SMILES) | anti-inflammatory effect (paw swelling volume) [1] | body weight ([2]; UC rats, throughout assay period) | MPO activity (severity index) ([2]; rectal, 50 mg/kg as printed, compared to 5-ASA, inflamed colon) | colon morphology and inflammation signs (images) ([2]; ulcerated colon segment, compared to non-treated or 5-ASA treated) | MTD [3] [mg/kg]
1 | CCC=CCC=CCC=CCC=CCC=CCC=CCCC(=O)N1CC(O)CC1C(=O)O (centres unmarked) [MWL001] | superior to Ibuprofen | no decrease | significant decrease | normal clear anatomic morphology and a significant decrease in inflammation signs | 
2 | CC/C=C\C/C=C\C/C=C\C/C=C\C/C=C\C/C=C\CCC(=O)NCCS(=O)(=O)O [MWL002, N-docosa-4,7,10,13,16,19-hexaenoyl-taurine] |  |  |  |  | 200 to 1000
